Experimental data as given in patent US20040180855A1, “Methods of treating thrombosis with reduced risk of increased bleeding times” (priority 2003, published 2004).

Experiments:
FIXa = molecular target: T1, FIXa (Homo sapiens, UniProt P00740); test: Selectivity assay FIXa; type: biochemical; conditions: Table 3
T1 construct: purchased American Diagnostica

Plasmin = molecular target: T2, Plasmin (Homo sapiens, UniProt P00747); test: Selectivity assay plasmin; type: biochemical; conditions: Table 3
T2 construct: Plasmin (Kabi Vitrum) was measured as for thrombin; purchased Kabi Vitrum
T2 sequence (P00747 581-810 limits assumed): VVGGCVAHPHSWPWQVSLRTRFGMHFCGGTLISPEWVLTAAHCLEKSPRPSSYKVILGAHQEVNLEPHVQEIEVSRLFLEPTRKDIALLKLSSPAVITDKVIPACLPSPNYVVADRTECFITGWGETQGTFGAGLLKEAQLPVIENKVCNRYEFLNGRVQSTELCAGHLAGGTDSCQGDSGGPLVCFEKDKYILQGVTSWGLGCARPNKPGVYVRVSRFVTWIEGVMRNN
T2 sequence (P00747 97-580 partner limits assumed): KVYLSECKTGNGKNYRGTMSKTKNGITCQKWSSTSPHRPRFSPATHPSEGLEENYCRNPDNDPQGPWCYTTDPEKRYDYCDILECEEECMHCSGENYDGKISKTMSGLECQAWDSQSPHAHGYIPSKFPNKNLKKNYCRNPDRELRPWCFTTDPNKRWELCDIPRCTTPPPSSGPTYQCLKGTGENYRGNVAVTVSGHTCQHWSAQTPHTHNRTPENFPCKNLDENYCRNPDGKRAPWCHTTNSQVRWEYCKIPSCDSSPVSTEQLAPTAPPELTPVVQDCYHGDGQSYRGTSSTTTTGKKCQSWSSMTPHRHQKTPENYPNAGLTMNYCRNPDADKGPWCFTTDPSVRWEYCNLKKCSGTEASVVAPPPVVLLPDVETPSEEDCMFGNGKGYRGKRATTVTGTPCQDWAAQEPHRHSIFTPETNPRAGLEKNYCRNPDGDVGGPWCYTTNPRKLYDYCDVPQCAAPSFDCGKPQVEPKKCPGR

[1] = test system: FeCl2-induced carotid artery thrombosis; test: Arterial thrombosis model (FeCl2 carotid artery); type: in vivo, rat; conditions: i.v. 12 mg/kg plus 12 mg/kg/hr
Description: General Surgical Preparation Male Sprague Dawley rats (310 to 390 g) were anesthetized with Na-pentobarbital (50 mg/kg i.p.). The left jugular vein was cannulated with PE-50 tubing for drug administration, and the trachea was intubated with PE-205 tubing to ensure airway patency. In some animals, a carotid artery was cannulated with PE-50 tubing to obtain blood samples, and a procedure was followed as described in Schumacher et al., “Comparison of Thrombin Active-Site and Exosite Inhibitors and Heparin in Experimental Models of Arterial and Venous Thrombosis and Bleeding,” J. Pharmacol. Exp. Therap., Vol. 267 (1993), at pp. 1237-42; Schumacher et al., Effects of Antithrombotic Drugs in a Rat Model of Aspirin-Insensitive Arterial Thrombosis, Thromb Haemostasis, Vol. 69 (1993), at pp. 509-514; or Schumacher et al., Effect of a Novel Thrombin Active-Site Inhibitor on Arterial and Venous Thrombosis, Eur J Pharmacol., Vol. 259 (1994), at pp. 165-171, each of which is incorporated herein by reference. […]
Arterial Thrombosis The left carotid artery was exposed and a piece of parafilm “M” (American National Can, Greenwich, Conn.) was inserted under the vessel. […] Carotid blood flow (CBF) was monitored continuously on a TA3800 physiologic recorder (Gould, Cleveland, Ohio). Total CBF was determined and normalized as percent of baseline (0 min) flow over 60 min to provide a measure of average blood flow during thrombus formation.
Statistical Analysis In the venous and arterial thrombosis procedures, treatment effects on thrombus weight, baseline blood flow, and average blood flow during thrombosis were determined by analysis of variance with Dunnett's test for comparison to the vehicle group. […] Treatment effects on bleeding times were determined by analysis of variance with Dunnett's test for comparison to the vehicle group. Both post-treatment and pre-treatment bleeding times and the relative bleeding time increases in sec were analyzed. […]

[2] = test system: FeCl2-VT (vena cava thrombosis); test: Venous thrombosis, vessel injury model (FeCl2-VT); type: in vivo; conditions: rat FeCl2-VT
Description: General Surgical Preparation Male Sprague Dawley rats (310 to 390 g) were anesthetized with Na-pentobarbital (50 mg/kg i.p.). The left jugular vein was cannulated with PE-50 tubing for drug administration, and the trachea was intubated with PE-205 tubing to ensure airway patency. In some animals, a carotid artery was cannulated with PE-50 tubing to obtain blood samples, and a procedure was followed as described in Schumacher et al., “Comparison of Thrombin Active-Site and Exosite Inhibitors and Heparin in Experimental Models of Arterial and Venous Thrombosis and Bleeding,” J. Pharmacol. Exp. Therap., Vol. 267 (1993), at pp. 1237-42; Schumacher et al., Effects of Antithrombotic Drugs in a Rat Model of Aspirin-Insensitive Arterial Thrombosis, Thromb Haemostasis, Vol. 69 (1993), at pp. 509-514; or Schumacher et al., Effect of a Novel Thrombin Active-Site Inhibitor on Arterial and Venous Thrombosis, Eur J Pharmacol., Vol. 259 (1994), at pp. 165-171, each of which is incorporated herein by reference. In each procedure, a small organic compound effective for inhibiting Factor XIa, as described herein, or saline vehicle, was administered i.v. as a loading infusion over 5 min plus a sustaining infusion that was maintained until the end of the procedure. Compound doses are indicated for each procedure in mg/kg plus mg/kg/hr. The volume of test article was 1 mL/kg plus 1 mL/kg/hr, except the 24 mg/kg+24 mg/kg/hr dose of compound where volume was doubled. […] Statistical Analysis In the venous and arterial thrombosis procedures, treatment effects on thrombus weight, baseline blood flow, and average blood flow during thrombosis were determined by analysis of variance with Dunnett's test for comparison to the vehicle group. […] Treatment effects on bleeding times were determined by analysis of variance with Dunnett's test for comparison to the vehicle group. Both post-treatment and pre-treatment bleeding times and the relative bleeding time increases in sec were analyzed. […]

T1 sequence (P00740 227-461 limits assumed): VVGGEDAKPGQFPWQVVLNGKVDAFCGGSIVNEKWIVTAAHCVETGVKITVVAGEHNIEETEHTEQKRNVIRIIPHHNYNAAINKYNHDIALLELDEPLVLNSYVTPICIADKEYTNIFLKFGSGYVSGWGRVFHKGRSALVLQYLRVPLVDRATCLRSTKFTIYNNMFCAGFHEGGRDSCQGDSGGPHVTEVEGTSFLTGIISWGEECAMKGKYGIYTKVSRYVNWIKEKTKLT
T1 sequence (P00740 47-191 partner limits assumed): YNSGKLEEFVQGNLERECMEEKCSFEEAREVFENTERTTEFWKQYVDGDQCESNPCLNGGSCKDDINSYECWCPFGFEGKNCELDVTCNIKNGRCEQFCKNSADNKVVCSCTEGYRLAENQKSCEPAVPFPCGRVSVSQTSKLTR

CC(C)(C)NC(=O)N1CCN(C(=O)N2C(=O)[C@H](CCCNC(=N)N)[C@H]2C(=O)O)CC1 [Example 4]
IC50 (FIXa): 17.4 µM | IC50 (Plasmin): 1.7 µM | decrease in thrombus weight ([1]; rat carotid artery, FIG. 2): 73% | average blood flow during thrombosis and vessel patency ([1]; rat): improvement | effect on FeCl2-induced carotid artery thrombosis (carotid blood flow, FIG. 1) ([1]; rat): prevented | inhibition (reduction in thrombus weight) ([2]; i.v. 0.2+0.2 mg/kg+mg/kg/hr, FIG. 3): about 38% | dose dependence of thrombus weight reduction ([2]; i.v. 0.2+0.2 to 6+6 mg/kg+mg/kg/hr): Dose-dependent reductions | reduction in thrombus weight ([2]; i.v. 6+6 mg/kg+mg/kg/hr, FIG. 3): approximately 90%
